Assay results: PMC8909834, “An Orally Bioavailable and Highly Efficacious Inhibitor of CDK9/FLT3 for the Treatment of Acute Myeloid Leukemia” (Cancers, 2022)

Assays:
Test in all cases: Kinase Hotspot radiolabel assay
Format in all cases: biochemical
Conditions in all cases: read-out: % Residual Activity
[1] = molecular target: T1, TNK1 (Homo sapiens, UniProt Q13470)
T1 construct: purchased Reaction Biology Corporation (Kinase HotSpot)
Outline: (§1)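 Profiled at 1 µM compound within a 369-kinase panel using a radiolabel Hotspot format. Ki values were then determined for kinases showing greater than 90% inhibition.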

[2] = molecular target: T2, MEKK6 (Homo sapiens, UniProt O95382)
T2 construct: purchased Reaction Biology Corporation (Kinase HotSpot)
Outline: as §1

[3] = molecular target: T3, P38g (Homo sapiens, UniProt P53778)
T3 construct: purchased Reaction Biology Corporation (Kinase HotSpot)
Outline: as §1

[4] = molecular target: T4, MST1/STK4 (Homo sapiens, UniProt Q13043)
T4 construct: purchased Reaction Biology Corporation (Kinase HotSpot)
Outline: as §1

[5] = molecular target: T5, MYLK4 (Homo sapiens, UniProt Q86YV6)
T5 construct: purchased Reaction Biology Corporation (Kinase HotSpot)
Outline: as §1

[6] = molecular target: T6, VRK1 (Homo sapiens, UniProt Q99986)
T6 construct: purchased Reaction Biology Corporation (Kinase HotSpot)
T6 sequence (Q99986 whole entry): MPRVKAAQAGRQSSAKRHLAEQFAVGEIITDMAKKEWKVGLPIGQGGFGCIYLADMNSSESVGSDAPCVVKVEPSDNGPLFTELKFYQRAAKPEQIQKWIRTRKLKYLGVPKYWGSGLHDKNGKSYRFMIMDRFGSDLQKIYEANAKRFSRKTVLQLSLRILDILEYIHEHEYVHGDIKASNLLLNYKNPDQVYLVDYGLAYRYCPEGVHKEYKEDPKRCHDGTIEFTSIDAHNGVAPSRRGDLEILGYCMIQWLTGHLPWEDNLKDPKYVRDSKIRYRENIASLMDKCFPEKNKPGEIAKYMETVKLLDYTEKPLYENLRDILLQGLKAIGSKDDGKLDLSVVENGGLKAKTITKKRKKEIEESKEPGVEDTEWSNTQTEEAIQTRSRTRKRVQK
Outline: as §1

[7] = molecular target: T7, MSK1/RPS6KA5 (Homo sapiens, UniProt O75582)
T7 construct: purchased Reaction Biology Corporation (Kinase HotSpot)
Outline: as §1

[8] = molecular target: T8, CDK14/cyclin Y (PFTK1) (Homo sapiens, UniProt O94921)
T8 construct: purchased Reaction Biology Corporation (Kinase HotSpot)
Outline: as §1

[9] = molecular target: T9, MUSK (Homo sapiens, UniProt O15146)
T9 construct: purchased Reaction Biology Corporation (Kinase HotSpot)
Outline: as §1

[10] = molecular target: T10, CTK/MATK (Homo sapiens, UniProt P42679)
T10 construct: purchased Reaction Biology Corporation (Kinase HotSpot)
Outline: as §1

[11] = molecular target: T11, MLCK2/MYLK2 (Homo sapiens, UniProt Q9H1R3)
T11 construct: purchased Reaction Biology Corporation (Kinase HotSpot)
Outline: as §1

[12] = molecular target: T12, BRAF (Homo sapiens, UniProt P15056)
T12 construct: purchased Reaction Biology Corporation (Kinase HotSpot)
Outline: as §1

[13] = molecular target: T13, ARK5/NUAK1 (Homo sapiens, UniProt O60285)
T13 construct: purchased Reaction Biology Corporation (Kinase HotSpot)
Outline: as §1

[14] = molecular target: T14, CHK2 (Homo sapiens, UniProt O96017)
T14 construct: purchased Reaction Biology Corporation (Kinase HotSpot)
T14 sequence (O96017 whole entry): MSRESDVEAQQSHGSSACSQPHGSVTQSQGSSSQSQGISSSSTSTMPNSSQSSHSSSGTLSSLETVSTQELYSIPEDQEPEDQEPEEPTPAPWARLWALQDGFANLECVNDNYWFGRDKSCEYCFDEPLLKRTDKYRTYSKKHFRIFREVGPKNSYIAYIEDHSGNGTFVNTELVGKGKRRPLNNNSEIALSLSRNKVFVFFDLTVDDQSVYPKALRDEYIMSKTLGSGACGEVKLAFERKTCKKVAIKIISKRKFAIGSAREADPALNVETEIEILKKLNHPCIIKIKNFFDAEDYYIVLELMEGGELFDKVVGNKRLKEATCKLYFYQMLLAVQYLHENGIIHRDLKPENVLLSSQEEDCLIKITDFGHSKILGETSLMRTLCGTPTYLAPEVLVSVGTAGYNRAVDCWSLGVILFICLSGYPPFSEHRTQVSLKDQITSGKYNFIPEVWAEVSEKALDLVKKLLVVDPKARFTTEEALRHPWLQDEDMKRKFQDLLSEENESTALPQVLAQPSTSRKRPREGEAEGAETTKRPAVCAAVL
Outline: as §1

[15] = molecular target: T15, SBK1 (Homo sapiens, UniProt Q52WX2)
T15 construct: purchased Reaction Biology Corporation (Kinase HotSpot)
T15 sequence (Q52WX2 whole entry): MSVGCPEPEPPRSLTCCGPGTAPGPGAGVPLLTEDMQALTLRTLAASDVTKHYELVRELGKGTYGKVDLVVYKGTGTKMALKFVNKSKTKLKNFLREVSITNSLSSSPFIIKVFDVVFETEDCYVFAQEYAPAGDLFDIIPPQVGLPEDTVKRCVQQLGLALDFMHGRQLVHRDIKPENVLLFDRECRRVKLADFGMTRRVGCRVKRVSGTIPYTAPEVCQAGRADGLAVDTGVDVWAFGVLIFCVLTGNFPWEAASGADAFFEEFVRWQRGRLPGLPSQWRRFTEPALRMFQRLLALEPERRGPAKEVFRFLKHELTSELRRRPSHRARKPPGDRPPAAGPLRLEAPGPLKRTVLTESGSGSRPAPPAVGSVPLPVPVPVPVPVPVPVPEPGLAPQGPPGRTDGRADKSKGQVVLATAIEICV
Outline: as §1

[16] = molecular target: T16, PKCiota (Homo sapiens, UniProt P41743)
T16 construct: purchased Reaction Biology Corporation (Kinase HotSpot)
T16 sequence (P41743 whole entry): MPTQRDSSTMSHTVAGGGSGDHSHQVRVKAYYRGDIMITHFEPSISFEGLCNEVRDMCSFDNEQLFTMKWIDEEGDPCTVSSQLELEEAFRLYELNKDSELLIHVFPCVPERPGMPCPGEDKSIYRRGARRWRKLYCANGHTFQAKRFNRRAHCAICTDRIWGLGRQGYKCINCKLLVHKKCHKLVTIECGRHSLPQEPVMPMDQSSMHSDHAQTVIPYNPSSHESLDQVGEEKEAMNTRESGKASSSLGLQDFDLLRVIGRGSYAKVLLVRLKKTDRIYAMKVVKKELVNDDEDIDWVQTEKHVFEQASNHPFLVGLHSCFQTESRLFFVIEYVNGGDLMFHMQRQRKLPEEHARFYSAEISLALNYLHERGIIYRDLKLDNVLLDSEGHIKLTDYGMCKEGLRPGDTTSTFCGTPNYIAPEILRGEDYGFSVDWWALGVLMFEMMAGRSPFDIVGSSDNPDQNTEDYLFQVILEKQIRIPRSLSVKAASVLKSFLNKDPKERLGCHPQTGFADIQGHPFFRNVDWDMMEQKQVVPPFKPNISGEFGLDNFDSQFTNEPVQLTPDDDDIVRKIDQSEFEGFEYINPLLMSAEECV
Outline: as §1

[17] = molecular target: T17, ALK2/ACVR1 (Homo sapiens, UniProt Q04771)
T17 construct: purchased Reaction Biology Corporation (Kinase HotSpot)
T17 sequence (Q04771 21-509): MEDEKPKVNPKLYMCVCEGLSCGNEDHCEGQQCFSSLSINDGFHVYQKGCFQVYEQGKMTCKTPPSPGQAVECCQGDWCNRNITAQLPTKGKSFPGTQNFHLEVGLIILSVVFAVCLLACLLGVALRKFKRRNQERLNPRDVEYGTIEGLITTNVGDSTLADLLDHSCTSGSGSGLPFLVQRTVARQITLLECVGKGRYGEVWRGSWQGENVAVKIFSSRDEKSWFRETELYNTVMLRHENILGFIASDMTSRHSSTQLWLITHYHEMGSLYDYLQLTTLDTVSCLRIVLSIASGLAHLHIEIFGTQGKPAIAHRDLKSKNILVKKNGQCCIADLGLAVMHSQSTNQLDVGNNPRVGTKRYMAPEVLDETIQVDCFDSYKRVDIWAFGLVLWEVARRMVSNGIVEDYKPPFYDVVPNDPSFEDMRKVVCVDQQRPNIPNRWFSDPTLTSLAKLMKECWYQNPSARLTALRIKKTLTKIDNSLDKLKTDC
Outline: as §1

[18] = molecular target: T18, GSK3a (Homo sapiens, UniProt P49840)
T18 construct: purchased Reaction Biology Corporation (Kinase HotSpot)
Outline: as §1

[19] = molecular target: T19, ERBB4/HER4 (Homo sapiens, UniProt Q15303)
T19 construct: purchased Reaction Biology Corporation (Kinase HotSpot)
Outline: as §1

[20] = molecular target: T20, PHKg2 (Homo sapiens, UniProt P15735)
T20 construct: purchased Reaction Biology Corporation (Kinase HotSpot)
Outline: as §1

[21] = molecular target: T21, PAK5 (Homo sapiens, UniProt Q9P286)
T21 construct: purchased Reaction Biology Corporation (Kinase HotSpot)
Outline: as §1

[22] = molecular target: T22, ERK7/MAPK15 (Homo sapiens, UniProt Q8TD08)
T22 construct: purchased Reaction Biology Corporation (Kinase HotSpot)
T22 sequence (Q8TD08 whole entry): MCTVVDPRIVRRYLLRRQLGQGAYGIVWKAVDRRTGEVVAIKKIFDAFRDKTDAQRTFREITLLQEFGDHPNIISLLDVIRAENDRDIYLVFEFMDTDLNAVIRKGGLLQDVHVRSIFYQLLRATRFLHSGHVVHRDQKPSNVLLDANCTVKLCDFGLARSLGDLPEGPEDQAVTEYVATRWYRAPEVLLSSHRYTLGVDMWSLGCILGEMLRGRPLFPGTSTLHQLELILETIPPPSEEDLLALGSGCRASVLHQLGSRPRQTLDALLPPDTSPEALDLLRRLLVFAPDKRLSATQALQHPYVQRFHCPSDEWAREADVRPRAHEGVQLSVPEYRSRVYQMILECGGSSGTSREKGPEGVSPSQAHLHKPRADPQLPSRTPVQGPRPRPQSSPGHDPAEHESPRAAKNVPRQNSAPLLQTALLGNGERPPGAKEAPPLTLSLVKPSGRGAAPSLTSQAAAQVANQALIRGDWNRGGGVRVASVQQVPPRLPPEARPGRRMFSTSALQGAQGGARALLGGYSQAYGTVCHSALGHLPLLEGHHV
Outline: as §1

[23] = molecular target: T23, MARK4 (Homo sapiens, UniProt Q96L34)
T23 construct: purchased Reaction Biology Corporation (Kinase HotSpot)
Outline: as §1

[24] = molecular target: T24, NEK2 (Homo sapiens, UniProt P51955)
T24 construct: purchased Reaction Biology Corporation (Kinase HotSpot)
Outline: as §1

[25] = molecular target: T25, EPHB4 (Homo sapiens, UniProt P54760)
T25 construct: purchased Reaction Biology Corporation (Kinase HotSpot)
Outline: as §1

[26] = molecular target: T26, CDK1/cyclin A (Homo sapiens, UniProt P06493)
T26 construct: purchased Reaction Biology Corporation (Kinase HotSpot)
T26 sequence (P06493 whole entry): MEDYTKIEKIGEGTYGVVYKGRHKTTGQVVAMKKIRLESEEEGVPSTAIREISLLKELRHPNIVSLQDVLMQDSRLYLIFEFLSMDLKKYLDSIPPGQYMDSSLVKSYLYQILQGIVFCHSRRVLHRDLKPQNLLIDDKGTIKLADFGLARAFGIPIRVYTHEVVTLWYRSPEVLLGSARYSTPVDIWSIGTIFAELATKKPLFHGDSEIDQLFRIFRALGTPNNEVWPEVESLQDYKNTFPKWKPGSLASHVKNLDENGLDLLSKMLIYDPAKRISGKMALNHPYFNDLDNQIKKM
T26 sequence (P20248 whole entry partner): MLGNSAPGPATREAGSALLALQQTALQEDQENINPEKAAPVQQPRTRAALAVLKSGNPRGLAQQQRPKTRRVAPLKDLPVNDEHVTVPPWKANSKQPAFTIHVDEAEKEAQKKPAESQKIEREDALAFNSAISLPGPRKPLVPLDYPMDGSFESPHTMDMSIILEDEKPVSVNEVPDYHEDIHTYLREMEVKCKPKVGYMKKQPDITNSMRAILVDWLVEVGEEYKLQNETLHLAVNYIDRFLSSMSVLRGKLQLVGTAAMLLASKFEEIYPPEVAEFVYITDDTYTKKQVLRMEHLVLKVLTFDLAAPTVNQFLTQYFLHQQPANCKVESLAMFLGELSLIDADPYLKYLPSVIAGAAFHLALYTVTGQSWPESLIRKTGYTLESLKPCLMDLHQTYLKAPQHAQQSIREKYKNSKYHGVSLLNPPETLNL
Outline: as §1

[27] = molecular target: T27, CDK5/p35 (Homo sapiens, UniProt Q00535)
T27 construct: purchased Reaction Biology Corporation (Kinase HotSpot)
T27 sequence (Q00535 whole entry): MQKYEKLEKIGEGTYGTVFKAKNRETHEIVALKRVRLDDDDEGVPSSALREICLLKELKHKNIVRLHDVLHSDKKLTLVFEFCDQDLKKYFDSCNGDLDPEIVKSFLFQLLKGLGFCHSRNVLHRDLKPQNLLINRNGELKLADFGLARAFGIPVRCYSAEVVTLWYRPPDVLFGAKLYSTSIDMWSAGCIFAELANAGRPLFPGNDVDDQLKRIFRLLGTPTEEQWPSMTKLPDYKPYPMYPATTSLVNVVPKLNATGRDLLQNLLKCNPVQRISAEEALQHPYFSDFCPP
T27 sequence (Q15078 whole entry partner): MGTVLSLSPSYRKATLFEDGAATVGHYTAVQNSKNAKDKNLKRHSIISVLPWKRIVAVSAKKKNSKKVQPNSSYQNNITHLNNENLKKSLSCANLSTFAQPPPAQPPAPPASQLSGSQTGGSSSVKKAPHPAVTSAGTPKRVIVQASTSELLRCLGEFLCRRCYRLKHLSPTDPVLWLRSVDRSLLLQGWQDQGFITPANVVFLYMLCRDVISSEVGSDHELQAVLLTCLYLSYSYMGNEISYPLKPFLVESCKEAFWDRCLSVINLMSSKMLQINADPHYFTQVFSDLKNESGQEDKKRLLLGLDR
Outline: as §1

[28] = molecular target: T28, ARAF (Homo sapiens, UniProt P10398)
T28 construct: purchased Reaction Biology Corporation (Kinase HotSpot)
T28 sequence (P10398 whole entry): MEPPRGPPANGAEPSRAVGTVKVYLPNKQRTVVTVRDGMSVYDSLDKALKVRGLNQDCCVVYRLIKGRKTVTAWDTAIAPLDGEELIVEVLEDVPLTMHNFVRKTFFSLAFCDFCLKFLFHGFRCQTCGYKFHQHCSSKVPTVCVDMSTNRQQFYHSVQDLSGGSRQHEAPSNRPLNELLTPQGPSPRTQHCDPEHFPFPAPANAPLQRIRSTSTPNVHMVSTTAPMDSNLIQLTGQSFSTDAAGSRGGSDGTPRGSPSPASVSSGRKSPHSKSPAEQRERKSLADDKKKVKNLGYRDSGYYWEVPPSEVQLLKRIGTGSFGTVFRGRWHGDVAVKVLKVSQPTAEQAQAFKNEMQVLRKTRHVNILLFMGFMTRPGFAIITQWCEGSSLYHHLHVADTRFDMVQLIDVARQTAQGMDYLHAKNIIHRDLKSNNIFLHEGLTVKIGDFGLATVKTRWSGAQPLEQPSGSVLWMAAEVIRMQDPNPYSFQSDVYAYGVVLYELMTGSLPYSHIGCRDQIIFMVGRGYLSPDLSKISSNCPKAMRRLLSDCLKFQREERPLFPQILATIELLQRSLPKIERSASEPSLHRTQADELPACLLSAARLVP
Outline: as §1

[29] = molecular target: T29, KDR/VEGFR2 (Homo sapiens, UniProt P35968)
T29 construct: purchased Reaction Biology Corporation (Kinase HotSpot)
Outline: as §1

[30] = molecular target: T30, IGF1R (Homo sapiens, UniProt P08069)
T30 construct: purchased Reaction Biology Corporation (Kinase HotSpot)
Outline: as §1

How did the remaining activity at 1 µM [1] turn out when Cc1cnc(N[C@H]2CC[C@H](N)CC2)nc1-c1cnc2ccc(-c3ccccc3)cn12 [CDDD11-8] was run?
The remaining activity at 1 µM was 55.4%.

What about the remaining activity at 1 µM [2] of the same compound?
Its remaining activity at 1 µM is 104%.

What about the remaining activity at 1 µM [3] of the same compound?
Its remaining activity at 1 µM is 100%.

What about the remaining activity at 1 µM [4] of the same compound?
The remaining activity at 1 µM was 8.89%.

What about the remaining activity at 1 µM [5] of the same compound?
Its remaining activity at 1 µM is 11.5%.

What about the remaining activity at 1 µM [6] of the same compound?
The remaining activity at 1 µM was 42.4%.

What about the remaining activity at 1 µM [7] of the same compound?
The remaining activity at 1 µM was 61.6%.

What about the remaining activity at 1 µM [8] of the same compound?
Its remaining activity at 1 µM is 68.8%.

What about the remaining activity at 1 µM [9] of the same compound?
Its remaining activity at 1 µM is 72.7%.

And the remaining activity at 1 µM [10]?
The remaining activity at 1 µM was 123%.

And the remaining activity at 1 µM [11]?
Its remaining activity at 1 µM is 25.9%.

What about the remaining activity at 1 µM [12] of the same compound?
The remaining activity at 1 µM was 99.7%.

What about the remaining activity at 1 µM [13] of the same compound?
Its remaining activity at 1 µM is 7.93%.

And the remaining activity at 1 µM [14]?
Its remaining activity at 1 µM is 97.2%.

And the remaining activity at 1 µM [15]?
The remaining activity at 1 µM was 102%.

What about the remaining activity at 1 µM [16] of the same compound?
The remaining activity at 1 µM was 88.8%.

What about the remaining activity at 1 µM [17] of the same compound?
The remaining activity at 1 µM was 121%.

What about the remaining activity at 1 µM [18] of the same compound?
The remaining activity at 1 µM was 70.1%.

What about the remaining activity at 1 µM [19] of the same compound?
The remaining activity at 1 µM was 96.9%.

And the remaining activity at 1 µM [20]?
The remaining activity at 1 µM was 93.9%.

What about the remaining activity at 1 µM [21] of the same compound?
Its remaining activity at 1 µM is 86.2%.

And the remaining activity at 1 µM [22]?
Its remaining activity at 1 µM is 66.4%.

What about the remaining activity at 1 µM [23] of the same compound?
The remaining activity at 1 µM was 22.4%.

What about the remaining activity at 1 µM [24] of the same compound?
The remaining activity at 1 µM was 90.7%.

And the remaining activity at 1 µM [25]?
Its remaining activity at 1 µM is 81%.

And the remaining activity at 1 µM [26]?
Its remaining activity at 1 µM is 78%.

And the remaining activity at 1 µM [27]?
The remaining activity at 1 µM was 84.5%.

What about the remaining activity at 1 µM [28] of the same compound?
Its remaining activity at 1 µM is 91.5%.

And the remaining activity at 1 µM [29]?
Its remaining activity at 1 µM is 86.9%.

What about the remaining activity at 1 µM [30] of the same compound?
Its remaining activity at 1 µM is 79%.
